Test results published in the NIST ThermoML archive (doi:10.1016/j.jct.2016.10.033).
± gives the expanded uncertainty stated by the source.

Assay: xn = mol fraction of the nth substance listed
Details: 103 kPa, Liquid, Vibrating tube method

CO[Si](C)(C)OC [dimethoxydimethylsilane] + CO[Si](C)(OC)c1ccccc1
mass density [kg/m3]
Details	298.15 K	303.15 K	308.15 K	313.15 K	318.15 K
x2 = 0	857.9 ± 0.41	852.05 ± 0.41	846.16 ± 0.41	840.22 ± 0.42	834.24 ± 0.42
x2 = 0.0501	867.91 ± 0.41	862.2 ± 0.42	856.41 ± 0.42	850.61 ± 0.42	844.75 ± 0.42
x2 = 0.1001	877.51 ± 0.41	871.89 ± 0.41	866.22 ± 0.41	860.51 ± 0.42	854.76 ± 0.42
x2 = 0.15	886.69 ± 0.41	881.2 ± 0.41	875.64 ± 0.41	870.06 ± 0.41	864.46 ± 0.42
x2 = 0.2	895.55 ± 0.41	890.16 ± 0.41	884.71 ± 0.41	879.29 ± 0.41	873.78 ± 0.41
x2 = 0.25	904.02 ± 0.41	898.68 ± 0.41	893.28 ± 0.41	887.86 ± 0.41	882.41 ± 0.41
x2 = 0.2999	912.17 ± 0.41	906.9 ± 0.41	901.56 ± 0.41	896.2 ± 0.41	890.82 ± 0.41
x2 = 0.3499	920.17 ± 0.41	914.94 ± 0.41	909.7 ± 0.41	904.52 ± 0.41	899.24 ± 0.41
x2 = 0.4001	927.65 ± 0.41	922.49 ± 0.41	917.31 ± 0.41	912.1 ± 0.41	906.86 ± 0.41
x2 = 0.4501	934.96 ± 0.41	929.92 ± 0.41	924.83 ± 0.41	919.75 ± 0.41	914.64 ± 0.41
x2 = 0.5001	942 ± 0.41	936.98 ± 0.41	931.93 ± 0.41	926.87 ± 0.41	921.78 ± 0.41
x2 = 0.55	948.79 ± 0.41	943.85 ± 0.41	938.85 ± 0.41	933.86 ± 0.41	928.85 ± 0.41
x2 = 0.6	955.36 ± 0.41	950.46 ± 0.41	945.52 ± 0.41	940.57 ± 0.41	935.6 ± 0.41
x2 = 0.6499	961.69 ± 0.41	956.82 ± 0.41	951.89 ± 0.41	946.97 ± 0.41	942.03 ± 0.41
x2 = 0.6999	967.83 ± 0.41	962.98 ± 0.41	958.11 ± 0.41	953.22 ± 0.41	948.33 ± 0.41
x2 = 0.75	973.78 ± 0.41	968.97 ± 0.41	964.15 ± 0.41	959.31 ± 0.41	954.48 ± 0.41
x2 = 0.7997	979.5 ± 0.41	974.72 ± 0.41	969.93 ± 0.41	965.13 ± 0.41	960.32 ± 0.41
x2 = 0.8499	985.08 ± 0.41	980.34 ± 0.41	975.58 ± 0.41	970.81 ± 0.41	966.02 ± 0.41
x2 = 0.8999	990.48 ± 0.41	985.77 ± 0.41	981.05 ± 0.41	976.33 ± 0.41	971.59 ± 0.41
x2 = 0.95	995.72 ± 0.41	991.04 ± 0.41	986.35 ± 0.41	981.66 ± 0.41	976.95 ± 0.41

C=C[Si](OC)(OC)OC [trimethoxy(vinyl)silane] + CO[Si](C)(OC)c1ccccc1
mass density [kg/m3]
Details	298.15 K	303.15 K	308.15 K	313.15 K	318.15 K
x2 = 0	965.69 ± 0.41	960.02 ± 0.41	954.26 ± 0.41	948.47 ± 0.41	942.63 ± 0.41
x2 = 0.05	968.08 ± 0.41	962.41 ± 0.41	956.71 ± 0.41	950.99 ± 0.41	945.24 ± 0.41
x2 = 0.1	970.32 ± 0.41	964.72 ± 0.41	959.1 ± 0.41	953.45 ± 0.41	947.77 ± 0.41
x2 = 0.1499	972.48 ± 0.41	966.94 ± 0.41	961.39 ± 0.41	955.8 ± 0.41	950.2 ± 0.41
x2 = 0.2	974.57 ± 0.41	969.11 ± 0.41	963.63 ± 0.41	958.1 ± 0.41	952.57 ± 0.41
x2 = 0.2501	976.61 ± 0.41	971.22 ± 0.41	965.8 ± 0.41	960.36 ± 0.41	954.9 ± 0.41
x2 = 0.2999	978.59 ± 0.41	973.25 ± 0.41	967.91 ± 0.41	962.52 ± 0.41	957.14 ± 0.41
x2 = 0.35	980.49 ± 0.41	975.22 ± 0.41	969.93 ± 0.41	964.61 ± 0.41	959.27 ± 0.41
x2 = 0.4001	982.35 ± 0.41	977.14 ± 0.41	971.9 ± 0.41	966.65 ± 0.41	961.37 ± 0.41
x2 = 0.4501	984.15 ± 0.41	978.99 ± 0.41	973.81 ± 0.41	968.61 ± 0.41	963.4 ± 0.41
x2 = 0.5	985.89 ± 0.41	980.79 ± 0.41	975.67 ± 0.41	970.52 ± 0.41	965.37 ± 0.41
x2 = 0.5499	987.58 ± 0.41	982.53 ± 0.41	977.46 ± 0.41	972.37 ± 0.41	967.27 ± 0.41
x2 = 0.6	989.22 ± 0.41	984.22 ± 0.41	979.2 ± 0.41	974.17 ± 0.41	969.12 ± 0.41
x2 = 0.6499	990.82 ± 0.41	985.86 ± 0.41	980.89 ± 0.41	975.91 ± 0.41	970.93 ± 0.41
x2 = 0.7	992.37 ± 0.41	987.46 ± 0.41	982.54 ± 0.41	977.6 ± 0.41	972.65 ± 0.41
x2 = 0.75	993.89 ± 0.41	989.02 ± 0.41	984.15 ± 0.41	979.26 ± 0.41	974.36 ± 0.41
x2 = 0.8001	995.35 ± 0.41	990.53 ± 0.41	985.7 ± 0.41	980.86 ± 0.41	976.01 ± 0.41
x2 = 0.8498	996.76 ± 0.41	991.99 ± 0.41	987.21 ± 0.41	982.41 ± 0.41	977.61 ± 0.41
x2 = 0.8999	998.15 ± 0.41	993.42 ± 0.41	988.68 ± 0.41	983.93 ± 0.41	979.18 ± 0.41
x2 = 0.9499	999.49 ± 0.41	994.81 ± 0.41	990.11 ± 0.41	985.41 ± 0.41	980.69 ± 0.41

CCO[Si](C)(C)OCC [dimethyldiethoxysilane] + CO[Si](C)(OC)c1ccccc1
mass density [kg/m3]
Details	298.15 K	303.15 K	308.15 K	313.15 K	318.15 K
x2 = 0	835.43 ± 0.41	830.05 ± 0.42	824.66 ± 0.42	819.23 ± 0.42	813.79 ± 0.42
x2 = 0.05	844.52 ± 0.42	839.2 ± 0.42	833.85 ± 0.42	828.47 ± 0.42	823.07 ± 0.42
x2 = 0.1001	853.53 ± 0.41	848.24 ± 0.42	842.96 ± 0.42	837.62 ± 0.42	832.3 ± 0.42
x2 = 0.1499	862.39 ± 0.41	857.16 ± 0.41	851.93 ± 0.41	846.65 ± 0.42	841.38 ± 0.42
x2 = 0.2002	871.25 ± 0.41	866.06 ± 0.41	860.86 ± 0.41	855.62 ± 0.41	850.38 ± 0.41
x2 = 0.2501	879.99 ± 0.41	874.82 ± 0.41	869.69 ± 0.41	864.51 ± 0.41	859.35 ± 0.41
x2 = 0.3001	888.58 ± 0.41	883.47 ± 0.41	878.37 ± 0.41	873.21 ± 0.41	868.08 ± 0.41
x2 = 0.3499	897.15 ± 0.41	892.09 ± 0.41	887.07 ± 0.41	881.99 ± 0.41	876.96 ± 0.41
x2 = 0.4	905.59 ± 0.41	900.56 ± 0.41	895.53 ± 0.41	890.45 ± 0.41	885.39 ± 0.41
x2 = 0.4499	914.02 ± 0.41	909.03 ± 0.41	904.09 ± 0.41	899.09 ± 0.41	894.16 ± 0.41
x2 = 0.5	922.3 ± 0.4	917.36 ± 0.41	912.44 ± 0.41	907.47 ± 0.41	902.55 ± 0.41
x2 = 0.55	930.51 ± 0.41	925.59 ± 0.41	920.71 ± 0.41	915.78 ± 0.41	910.89 ± 0.41
x2 = 0.5999	938.58 ± 0.41	933.7 ± 0.41	928.83 ± 0.41	923.93 ± 0.41	919.05 ± 0.41
x2 = 0.65	946.66 ± 0.41	941.82 ± 0.41	936.99 ± 0.41	932.13 ± 0.41	927.3 ± 0.41
x2 = 0.6999	954.61 ± 0.41	949.79 ± 0.41	944.98 ± 0.41	940.14 ± 0.41	935.33 ± 0.41
x2 = 0.75	962.69 ± 0.41	957.72 ± 0.41	952.94 ± 0.41	948.14 ± 0.41	943.35 ± 0.41
x2 = 0.8	970.29 ± 0.41	965.52 ± 0.41	960.76 ± 0.41	955.98 ± 0.41	951.2 ± 0.41
x2 = 0.8498	978.01 ± 0.41	973.29 ± 0.41	968.57 ± 0.41	963.83 ± 0.41	959.11 ± 0.41
x2 = 0.9	985.69 ± 0.41	980.99 ± 0.41	976.3 ± 0.41	971.58 ± 0.41	966.88 ± 0.41
x2 = 0.95	993.25 ± 0.41	988.58 ± 0.41	983.91 ± 0.41	979.23 ± 0.41	974.53 ± 0.41
